# Assay results: patent publication US12599597B2, “Substituted N-benzhydrylacetamide inhibitors of jumanji domain histone demethylases for the treatment of cancer” (University of Kentucky Research Foundation, priority 2020, dated 2026)
# Key:
# [1] = system: Wnt target genes in LS174T colon cancer cells; test: Western blotting of Wnt target genes in colon cancer cells; assay type: cell-based
# From the text: The activities of 58B1 were validated by western blotting.
# Identification of a CBA-1 as a novel Wnt inhibitor. The present inventors routinely use TOPFlash reporter assay for Wnt inhibitor screening. To mimic the constitutively active Wnt signaling found in CRC cells, Wnt signaling was activated by inhibiting GSK3 and stabilizing β-catenin. From screening in house small-molecule libraries, CBA-1 (FIG. 4) was identified that inhibited Wnt signaling in TOPFlash reporter assay. To validate the screening results, CBA-1 was tested in CRC cells.
# [2] = system: H3K9Me2 on the promoter of c-Myc gene; test: ChIP assay followed by qPCR; assay type: cell-based
# From the text: CBA-1 increased repressive histone methylation on Wnt target genes. The present inventors reported that mutations in APC or β-catenin N-terminal phosphorylation sites prevented β-catenin degradation in CRC cells. […] Because CBA-1 inhibited Wnt signaling in CRC cells, it was reasonable to assume that it inhibited Wnt signaling downstream of β-catenin, most likely by blocking β-catenin activity in the nucleus. Consequently, the present inventors hypothesized that CBA-1 inhibited Wnt signaling epigenetically by altering chromatin remodeling, and they probed the effects of CBA-1 on histone methylation in CRC cells.
# KDM3B = KDM3B (Homo sapiens, UniProt Q7LBC6); test: KDM3B enzymatic activity; assay type: biochemical; conditions: at 10 μM
# Chain of KDM3B (Q7LBC6 whole entry, the tested form may be a part): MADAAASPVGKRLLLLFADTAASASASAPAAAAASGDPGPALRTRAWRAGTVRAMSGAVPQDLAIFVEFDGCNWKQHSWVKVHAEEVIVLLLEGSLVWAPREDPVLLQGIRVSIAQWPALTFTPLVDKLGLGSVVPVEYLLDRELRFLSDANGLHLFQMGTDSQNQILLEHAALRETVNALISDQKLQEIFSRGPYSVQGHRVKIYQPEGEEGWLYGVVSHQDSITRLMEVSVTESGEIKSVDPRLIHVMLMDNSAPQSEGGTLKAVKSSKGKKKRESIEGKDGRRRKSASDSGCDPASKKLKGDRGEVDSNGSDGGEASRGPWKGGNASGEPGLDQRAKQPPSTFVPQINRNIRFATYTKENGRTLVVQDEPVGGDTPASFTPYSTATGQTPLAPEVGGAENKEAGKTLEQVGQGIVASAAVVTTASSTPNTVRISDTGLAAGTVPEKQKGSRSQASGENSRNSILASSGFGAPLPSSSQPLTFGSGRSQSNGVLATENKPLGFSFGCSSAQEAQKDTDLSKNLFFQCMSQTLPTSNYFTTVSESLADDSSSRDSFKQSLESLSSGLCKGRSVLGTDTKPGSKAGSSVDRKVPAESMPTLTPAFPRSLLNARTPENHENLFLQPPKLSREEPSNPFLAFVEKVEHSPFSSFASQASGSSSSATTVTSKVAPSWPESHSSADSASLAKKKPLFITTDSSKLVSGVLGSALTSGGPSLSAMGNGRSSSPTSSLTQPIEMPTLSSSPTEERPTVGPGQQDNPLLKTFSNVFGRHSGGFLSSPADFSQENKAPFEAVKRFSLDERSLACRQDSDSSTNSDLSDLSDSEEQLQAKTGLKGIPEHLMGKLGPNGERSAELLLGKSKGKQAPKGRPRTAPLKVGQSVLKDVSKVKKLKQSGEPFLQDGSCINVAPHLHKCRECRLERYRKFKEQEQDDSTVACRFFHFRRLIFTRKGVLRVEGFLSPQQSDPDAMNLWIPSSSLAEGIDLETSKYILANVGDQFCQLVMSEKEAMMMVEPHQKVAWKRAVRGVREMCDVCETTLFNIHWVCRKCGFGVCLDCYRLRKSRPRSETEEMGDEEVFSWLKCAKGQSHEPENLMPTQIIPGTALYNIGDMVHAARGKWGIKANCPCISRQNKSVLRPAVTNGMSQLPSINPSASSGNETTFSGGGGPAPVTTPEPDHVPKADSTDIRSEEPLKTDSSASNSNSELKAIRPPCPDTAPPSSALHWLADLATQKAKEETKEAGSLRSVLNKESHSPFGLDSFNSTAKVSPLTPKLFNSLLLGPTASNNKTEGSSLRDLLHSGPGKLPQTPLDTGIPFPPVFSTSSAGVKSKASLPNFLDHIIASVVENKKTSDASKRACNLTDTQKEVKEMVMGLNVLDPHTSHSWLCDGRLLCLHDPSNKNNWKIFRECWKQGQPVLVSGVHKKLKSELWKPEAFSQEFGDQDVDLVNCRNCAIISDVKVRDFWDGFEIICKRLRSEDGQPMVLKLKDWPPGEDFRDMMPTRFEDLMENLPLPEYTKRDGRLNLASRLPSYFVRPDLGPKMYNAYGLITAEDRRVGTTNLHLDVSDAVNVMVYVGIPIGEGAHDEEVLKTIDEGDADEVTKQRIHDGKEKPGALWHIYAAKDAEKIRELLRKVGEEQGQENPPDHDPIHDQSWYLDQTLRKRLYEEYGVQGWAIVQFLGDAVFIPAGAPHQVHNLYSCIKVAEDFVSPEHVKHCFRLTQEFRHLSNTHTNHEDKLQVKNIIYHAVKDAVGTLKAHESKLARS
# From the text: Other KDM3 members as CBA-1 targets. Inhibition of KDM3A by CBA-1 increased H3K9Me^2 and inhibited Wnt signaling; however, other KDM3 members may also regulate H3K9 methylation. For example, both KDM3B and KDM3C (JMJD1C) regulated Wnt signaling. Given the high similarity of their structures (FIG. 10A), particularly the JmjC domains, it is believed that CBA-1 would inhibit KDM3B and KDM3C as well. […] CBA-1 coordinated with Mn^2+ at a longer distance in KDM3B (3.9 Å) than the distance in KDM3A (2.8 Å) (FIGS. 8B and 10B). This could be one of the reasons that CBA-1 inhibited KDM3A better than KDM3B.
# Repurposing drugs as CBA-1 analogs and KDM3 inhibitors. CBA-1 is a specific and potent KDM3A inhibitor. As backup candidates, two approved drugs were identified as CBA-1 analogs and KDM3A inhibitors. Based on the docking study (FIGS. 8A-B), the N and OH groups (red color in FIG. 12A) are critical in binding the Mn^2+ in KDM3A. […] A virtual screening was performed and several antibiotics that have similar structures were identified. Two of these antibiotics, clioquinol and nitroxoline (FIG. 12B), indeed inhibited the enzymatic activities of KDM3 (FIGS. 12C and D). These two drugs were tested in LS174T tumor xenograft model in SCID mice. […] Nitroxoline has been used in Europe for over 50 years as an antibiotic. It has anticancer effects, but the mechanism remains unclear.
# Wnt signaling = test: Zebrafish Wnt signaling models; assay type: in vivo
# From the text: FIGS. 1A-F show a KDM3A inhibitor, called “58B1,” that inhibited Wnt signaling in vitro and in vivo. (A) Docking of 58B1 to the Jumonji domain. (B) 58B1 inhibited KDM3A enzymatic activity in vitro. (C) KDM3A was overexpressed in CRC. (D) 58B1 increased repressor markers, H3K9Me^2 and K3K9Me^3. (E) 58B1 inhibited Wnt target genes in CRC cells. (F) 58B1 inhibited Wnt signaling in a transgenic zebrafish model. In this model, GFP was control by a Wnt-responsive promoter. In the control fish, GFP was expressed in the tail, where has higher levels on Wnt signaling. 58B1 treatment abolished GFP expression in the tail.
# CBA-1 inhibited Wnt signaling in Zebrafish models. Zebrafish provide a well-established in vivo model to study Wnt signaling. Wnt signaling is active in the tail of the larvae during development (FIG. 4), and CBA-1 inhibited Wnt signaling in the tail. […] To rule out the possibility that CBA-1 inhibits the Wnt-mediated phenotype through nonspecific or even toxic effects, an eye-rescue experiment was performed.
smiles,measurement,setting,value
CCCC(=O)NC(c1ccc(N(CC)CC)cc1)c1cc(Cl)c2cccnc2c1O (centres unmarked) [58B1],expression of Wnt target genes,"[1]; 5 μM, LS174T, western blotting",strongly inhibited
same,expression of Wnt target genes,"[1]; CRC cells (LS174T), concentration not given",repressed
same,levels of H3K9Me2 on the promoter of c-Myc gene,"[2]; ChIP, qPCR",increased
same,active markers H3K9Ac and H3K4Me^3 on the promoter of Wnt target genes in CRC cells,[2]; expected,decrease
same,repressive marker H3K9Me^2 on the promoter of Wnt target genes in CRC cells,[2]; expected,increase
same,KDM3B inhibition,KDM3B,weakly inhibits
same,GFP expression in the tail (Wnt-responsive promoter),Wnt signaling; transgenic zebrafish model,abolished
same,Wnt-dependent tail regeneration,Wnt signaling; zebrafish,reduced
same,toxicity in eye-rescue experiment,Wnt signaling; zebrafish,without obvious toxicity effects
same,Wnt signaling in the tail,Wnt signaling; zebrafish larvae,inhibited
same,Wnt-induced eye defects (eye-rescue experiment),"Wnt signaling; zebrafish, dose-responsive manner",rescued
